Experimental data: US5980899A, “Identification of peptides that stimulate hepatitis C virus specific cytotoxic T cells” (The United States of America as represented by the …, priority 1992, dated 1999)

Tests used:
HCV = conditions: chronic HCV liver disease; cited from earlier work
T cells = assay: Response to P17 stimulation in a chronically infected chimpanzee; assay type: cell-based; conditions: one chronically infected chimpanzee
[1] = system: 18Neo (BALB/c 3T3 fibroblast, H-2^d) target cells

Row | Compound | patients who respond (HCV) | responders who relapse after treatment is stopped (HCV) | cytotoxicity in response to stimulation (T cells) | toxicity that might affect activity in CTL stimulation or utility in vivo [1]
1 | α-interferon | less than half | approximately 50% |  | 
2 | CSCC[C@H](N)C(=O)N[C@@H](CO)C(=O)N[C@@H](Cc1ccc(O)cc1)C(=O)N[C@@H](CO)C(=O)N[C@@H](Cc1c[nH]c2ccccc12)C(=O)N[C@H](C(=O)NCC(=O)N[C@@H](C)C(=O)N[C@@H](CC(C)C)C(=O)N[C@H](C(=O)N[C@H](C(=O)N1CCC[C@H]1C(=O)N[C@@H](CS)C(=O)N[C@@H](C)C(=O)N[C@@H](C)C(=O)N[C@@H](CCC(=O)O)C(=O)O)[C@@H](C)O)C(C)C)[C@@H](C)O [P17, MSYSWTGALVTPCAAE] |  |  | not cytotoxicity | did not show any toxicity
